PMC7169385, “Metabolic Stability of New Mito-Protective Short-Chain Naphthoquinones” (Pharmaceuticals, 2020)
Several values for one entry are separate records, joined by “and”; a condition that tells them apart may be missing. Equal entries are not always repeated.

Columns and labels:
[1] = tested on: HepG2 cells; test: Metabolic stability study in HepG2 cells with RP-LC quantitation; format: in vitro ADME, human; conditions: for metabolic stability (in words) / metabolic conversion to the oxidized form: up to 6 h; for metabolic conversion to the oxidized form: by retention time, 3 to 5, 14 to 15, 4 to UTAS#94
Description: HepG2 cells were cultured in DMEM culture media in an atmosphere of 95% humidified air and 5% CO2 at 37 °C. Cells were passaged twice a week when reaching approximately 75% confluency. Cell monolayers were washed with PBS once before harvested with 0.5 mL EDTA and 0.5 mL trypsin for 3.5 min and counted using a hemocytometer (Paul Marienfeld GmbH, Lauda-Königshofen, Germany). Cells were routinely grown in 25 cm^2 cell culture flasks (2 μm vent cap, Corning, Victoria, Australia) with 2 × 10^6 cells seeded in 5 mL culture media. After thawing from liquid nitrogen storage, cells were passaged for at least 2–3 weeks to reach steady cumulative growth rates before used for any experiments.
To effectively compare the metabolic stability of our novel SCQs to the reference compound idebenone, a cell culture system had to be developed that would replicate the high metabolic conversion of idebenone in the liver observed in vivo [15, 16, 17]. We therefore employed the hepatic cell line HepG2 to expose the test compounds to hepatic-like enzymatic activities. In addition, the test concentration for SCQs and idebenone had to take into consideration two opposing factors. On the one hand the assay would need to contain sufficient test compound to maximize detection accuracy, on the other hand, the concentration needed to be below the levels that might induce toxicity towards the cultured cells. Based on previous data, no significant cell loss was observed when HepG2 cells were treated with most SCQs at a concentration of 200 μM for 24 h, which led us to select the lower concentration of 40 μM as test concentration. […] We therefore selected the lowest cell concentration (2.5 × 10^5 cells in 2 mL culture media) for this assay.
Log phase HepG2 cells were seeded at 2.5 × 10^5 cells well^−1 in tissue culture-treated 6-well plates (Corning, Victoria, Australia) and allowed to adhere overnight. After one day, the culture media was replaced with fresh culture media (2 mL well^−1) containing the test compounds (12 parallel wells per SCQ). After incubation of cells with test compounds for up to 6 hours, the cell culture media containing the residual SCQs was removed from the six-well plates. Then, 1 mL of cell culture media containing each tested compound was collected at different time points (t = 0, 2 h, 4 h, 6 h). Several methods of sample preparation were tested (e.g., dilution with organic solvents followed by evaporation) and the most suited approach was identified. Each sample (1 mL) was mixed 1:1 with ACN, vortexed for 10 s, and then centrifuged at 2000× g for 10 min at 25 °C. 1 mL of each supernatant was diluted 1:1 in purified water and filtered using 0.45 μm filters prior to immediate analysis by RP-LC. The final concentration of tested compounds for RP-LC analysis was ≤10 μM.
The RP-LC method was developed so that ≤10 μM of each SCQ could be quantified with acceptable repeatability (RSD%) and recovery (%). The mobile phase gradient was adjusted to generate a retention time (RT) of all compounds between 3.00–9.05 min (Table S1). The final conditions included a gradient flow of mobile phase B: 25% (same ACN% in the sample) for 2 min, 25–95% for 3 min, 95% for 4 min, 95–25% for 1 min, and 25% for 5 min (total run t = 15 min, including column post-conditioning). The injection volume (2–20 μL) and detection wavelength (210 nm, 230 nm, 254 nm, 480 nm) were then varied to optimize sensitivity, with 20 μL sample injection volume and detection at 210 nm identified as ideal (Figure S3). Supplementary Table S1 summarizes the analytical figures of merit for the RP-LC of all the compounds. […] The limit of quantification (LOQ) of each compound was established as 1 μM. RSD% (n = 3) at all concentrations (1.0 μM, 2.5 μM, 5.0 μM, 7.5 μM, and 10 μM) were between 0.4–7.6%. […] The above values for analytical figures of merit were considered acceptable for determining metabolic stability of the compounds with concentrations ≤10 μM. […]

[2] = tested on: HepG2 cells; design: method as in PMID 30996858; conditions: ref [11], cited from earlier work; for In vitro Cytoprotection (%): HepG2, 10 μM SCQ, rotenone, cell survival relative to untreated cells (27.9 ± 7.9%), mean ± SD
[3] = tested on: idebenone metabolism in HepG2 cells; test: Idebenone metabolism in HepG2 cells with or without 5; format: in vitro ADME, human; conditions: HepG2, 6 h
Description: The conversion from the L-phenylalaninol derivative 3 to the L-phenylalanine derivative 5 appeared to reach a plateau at ~10% conversion from t = 2 h and persisted for the entire test period until t = 6 h. […] A concentration series of the unstable reference SCQ idebenone was tested for metabolic stability for 6 h with or without 40 μM 5 (Figure 4). […] Future studies will need to address the type of inhibition and to identify the specific enzyme that is inhibited.
Figure 4 Reduced idebenone metabolism in the presence of the L-phenylalanine derivative 5. Data was expressed as mean ± SEM from three independent experiments, with 4 data points each. Non-linear fits and two-way ANOVA were performed for comparisons between with or without 5 supplemented: *** p < 0.001, * p < 0.033.

[4] = design: method as in PMID 19125241; conditions: single dose of 150 mg; ref [15]; cited from earlier work

SMILES | metabolic stability (in words) ([1]; HepG2, 40 μM) | In vitro Cytoprotection (%) [2] | also measured
CC1=C(CCCC(=O)N[C@H](CO)c2ccccc2)C(=O)c2ccccc2C1=O [Compound 1] | without a significant metabolic conversion | 83.8 ± 19.9% | 
CC1=C(CCCC(=O)N[C@@H](CO)c2ccccc2)C(=O)c2ccccc2C1=O [Compound 2] | without a significant metabolic conversion | 87.6 ± 19.7% | 
CC1=C(CCCC(=O)N[C@H](CO)Cc2ccccc2)C(=O)c2ccccc2C1=O [Compound 3] | much less stable than its unnatural D-enantiomer 4 | 93.1 ± 13.7% | 
CC1=C(CCCC(=O)N[C@@H](CO)Cc2ccccc2)C(=O)c2ccccc2C1=O [Compound 4] | without a significant metabolic conversion | 80.0 ± 21.1% | metabolic conversion to the oxidized form ([1]; HepG2, 40 μM): no conversion was detected
CC1=C(CCCC(=O)N[C@@H](Cc2ccccc2)C(=O)O)C(=O)c2ccccc2C1=O [Compound 5] | without a significant metabolic conversion | 100.3 ± 17.3% | stability of 5 in combination with idebenone ([3]; 40 μM 5, all concentrations of idebenone): stable; effect on idebenone metabolism ([3]; 40 μM 5, from 20 μM idebenone onward): significant reduction of idebenone metabolism
CC1=C(CCCCC(=O)N[C@@H](Cc2ccccc2)C(=O)O)C(=O)c2ccccc2C1=O [Compound 6] | without a significant metabolic conversion | 90.7 ± 15.6% | 
CC1=C(CCCC(=O)NCCc2ccc(O)cc2)C(=O)c2ccccc2C1=O [Compound 7] | less stable | 91.7 ± 15.6% | 
CC1=C(CCCCC(=O)NCCc2ccc(O)cc2)C(=O)c2ccccc2C1=O [Compound 8] | increased metabolic stability | 91.8 ± 9.8% | 
CC1=C(CCCCCC(=O)NCCc2ccc(O)cc2)C(=O)c2ccccc2C1=O [Compound 9] | increased metabolic stability | 85.2 ± 9.5% | 
CC1=C(CCCC(=O)N[C@@H](CC(C)C)C(=O)O)C(=O)c2ccccc2C1=O [Compound 10] | without a significant metabolic conversion | 98.7 ± 10.9% | 
COc1ccc(CCNC(=O)CCCC2=C(C)C(=O)c3ccccc3C2=O)cc1OC [Compound 11] |  | 95.9 ± 19.4% | 
CCCCNC(=O)CCCC1=C(C)C(=O)c2ccccc2C1=O [Compound 12] |  | 82.0 ± 7.1% | 
COC(=O)[C@@H](NC(=O)CCCC1=C(C)C(=O)c2ccccc2C1=O)c1ccccc1 [Compound 13] |  | 86.1 ± 5.0% | 
CC1=C(CCCC(=O)N2CCCC2CO)C(=O)c2ccccc2C1=O (stereo not drawn) [Compound 14] |  | 100.7 ± 28.4% | metabolic conversion to the oxidized form ([1]; HepG2, 40 μM): not detected at all
CC1=C(CCCC(=O)N2CCCC2C(=O)O)C(=O)c2ccccc2C1=O (stereo not drawn) [Compound 15] |  | 92.7 ± 7.6% | 
CC1=C(SCCC(=O)O)C(=O)c2ccccc2C1=O [Compound 16] | significantly reduced metabolic stability |  | 
COC1=C(OC)C(=O)C(CCCCCCCCCCO)=C(C)C1=O [Idebenone, reference compound] |  | 66.2 ± 12.0% | t1/2 in vivo [4]: 3 h and ~ 3 h; remaining at t = 6 h ([1]; HepG2 2.5 × 10^5 cells per well, 40 μM, 6 h, normalized to t = 0): ~ 27.3%; metabolized drug after 2 h ([1]; HepG2, 40 μM, 2 h, three cell densities (2.5 × 10^5 to 1.0 × 10^6 cells in 2 mL)): ~ 50%; metabolized drug after 4 h ([1]; HepG2, 40 μM, 4 h, three cell densities (2.5 × 10^5 to 1.0 × 10^6 cells in 2 mL)): ~76%
CC1=C(CCCC(=O)N[C@H](Cc2ccccc2)C(=O)O)C(=O)c2ccccc2C1=O [UTAS#94] |  |  | cytoprotection (in words) ([2]; selection for the current study): not cytoprotective enough
